Viability data for 78 compounds are collected here from paper PMC12040169 (PLOS Biology, 2025).

The viability is a read-out of living cells in per cent, often relative to untreated cells.

The nature of the series: in vitro. Conditions: human, hela cells, % viability.

For `O=C(O)CCC(=O)NNC(=O)c1cccc(O)c1` [CBK262116], the viability at 28.5 h, 10 µM amounted to 97.8%. Still for that read-out and setting: the same measure for `Cc1ccc(S(=O)(=O)c2cccc(S(=O)(=O)N3CCOCC3)c2)cc1S(=O)(=O)N1CCOCC1` [CBK262117]: 109%; for `Cc1ccccc1NCC(=O)N/N=C\c1cc(Br)c(O)c(Br)c1` [CBK262120]: 87.7%; for `N#C/C(=C\c1ccc(-c2ccc(C(=O)O)c(O)c2)o1)c1nc2ccccc2[nH]1` [CBK262121]: 91.7%. Same read-out and setting: as for `Cc1[nH]c(=O)[nH]c(=O)c1S(=O)(=O)Nc1ccc(S(N)(=O)=O)cc1` [CBK262123], the figure is 91.7%. Take `O=C(COC(=O)c1cc(O)nc2ccccc12)c1ccc(Br)cc1` [CBK262125]: the viability at 28.5 h, 10 µM came out at 103%.

Take `CSc1ccc(CNCCc2c[nH]c3ccccc23)cc1` [CBK262126]: the viability at 28.5 h, 10 µM was 93.4%. Take `COc1ccc(CC(C(=O)O)C(=O)O)cc1OC` [CBK262127]: the viability at 28.5 h, 10 µM was determined as 95.9%. With `N=c1n(CC(=O)c2ccc(-c3ccccc3)cc2)c2ccccc2n1Cc1ccccc1` [CBK262128B], the viability at 28.5 h, 10 µM is 99.3%. On the same count and under the same terms, as for `O=C(Cn1c(NCCO)nc2ccccc21)C12CC3CC(CC(C3)C1)C2` [CBK262129B], the figure is 85.4%; as for `O=C(CSc1nc2ccccc2s1)c1cccc([N+](=O)[O-])c1` [CBK262130], 88.2%; as for `O=C(Nc1cccc2cccnc12)c1sc2ccccc2c1Cl` [CBK262132], 98.8%. As to `O=C1c2ccc(-n3c(=O)c4cc5c(=O)n(-c6ccc7c(c6)C(=O)N(c6ccccc6)C7=O)c(=O)c5cc4c3=O)cc2C(=O)N1c1ccccc1` [CBK262136], the viability at 28.5 h, 10 µM is 88.1%.

Take `O=C(Cn1c(NCCO)nc2ccccc21)c1ccc([N+](=O)[O-])cc1` [CBK262139B]: the viability at 28.5 h, 10 µM was 100%. The same measure, in the same setting: the same measure for `O=C(O)CSCC(=O)c1ccccc1` [CBK262140]: 93.1%; for `Cc1noc(NS(=O)(=O)c2ccc(NC(=O)COc3ccc(Cl)cc3Cl)cc2)c1C` [CBK262142]: 89.3%; for `O=C(/C(=C\c1ccc([N+](=O)[O-])cc1)n1cncn1)c1ccc(Cl)cc1Cl` [CBK262145]: 90.3%.

Take `CCOc1cc(/C=N\NC(=O)CNc2ccccc2C)cc(Br)c1O` [CBK262151]: the viability at 28.5 h, 10 µM stood at 86.5%.

Regarding `Cc1cccnc1NC(=O)COc1ccc(Cl)cc1Cl` [CBK262154], the viability at 28.5 h, 10 µM was determined as 86.5%. The same measure, in the same setting: as for `Cc1cc(I)ccc1S(=O)(=O)NCc1ccccn1` [CBK262155], the figure is 106%; as for `O=C(NCc1ccccn1)C(=O)N/N=C/c1ccccc1O` [CBK262157], 85.4%; as for `COc1ccc(CNC(=O)C(=O)NCc2ccccc2)cc1` [CBK262158], 103%. On the same count and under the same terms, as for `O=[N+]([O-])c1ccc(COc2cccc(/C=N/Nc3nc4ccccc4s3)c2)cc1` [CBK262160], the figure is 87.8%; as for `O=c1c(-c2nc3ccccc3s2)coc2c(CN3CCCCC3)c(O)ccc12` [CBK262161], 106%; as for `CCOc1ccc2nc(NS(=O)(=O)c3ccc4c5c(cccc35)C(=O)N4)sc2c1` [CBK262162], 100%.

As to `O=C(N/N=C/c1cc(Br)cc(Br)c1O)C(Oc1ccccc1)Oc1ccccc1` [CBK262164], the viability at 28.5 h, 10 µM worked out at 95.6%. Same read-out and setting: as for `COc1cc(/C=C2/S/C(=N\c3ccccc3)NC2=O)ccc1OCc1ccccc1[N+](=O)[O-]` [CBK262165], the figure is 88.4%; as for `Cc1ccc(N(CC(=O)N/N=C2\C(=O)Nc3ccccc32)S(=O)(=O)c2ccccc2)cc1` [CBK262169], 105%. On the same count and under the same terms, the same measure for `O=C(CN1C(=O)/C(=C/c2ccccc2)SC1=S)Nc1cccc(C(=O)O)c1` [CBK262171]: 86.9%; for `O=C(O)c1ccc(/C=C/C(=O)c2ccc3c(c2)OCCO3)cc1` [CBK262173]: 89.1%.

For the compound `O=C(NC(NCc1ccco1)C(Cl)(Cl)Cl)c1ccc(Br)cc1` (stereo not drawn) [CBK262174], the viability at 28.5 h, 10 µM came out at 89%.

Take `NS(=O)(=O)c1ccc(NC(=S)NC(=O)/C=C/c2ccc([N+](=O)[O-])cc2)cc1` [CBK262176]: the viability at 28.5 h, 10 µM was determined as 99.2%. The same measure, in the same setting: the same measure for `Cc1ccc(NC(=O)CC(=O)NCCN2CCOCC2)cc1` [CBK262179]: 92.8%; for `COc1cc(/C=C2/SC(=N)NC2=O)ccc1OCc1ccccc1[N+](=O)[O-]` [CBK262181]: 85.4%. On to `Cc1ccc(N(CC(=O)N/N=C/c2ccc(Cl)cc2)S(=O)(=O)c2ccccc2)cc1` [CBK262182], for which the viability at 28.5 h, 10 µM is 98.3%. On the same count and under the same terms, as for `Cc1cccnc1NC(=O)c1cccc(C(=O)Nc2ncccc2C)c1` [CBK262184], the figure is 88.6%; as for `O=C(N/N=C/c1ccc(C(=O)O)cc1)C(=O)Nc1cccc(Br)c1` [CBK262185], 88.6%; as for `Nc1nnnn1CC(=O)N/N=C/c1cc2c(cc1[N+](=O)[O-])OCO2` [CBK262187], 117%. For `O=C(N/N=C1/CN2CCC1CC2)c1cccc(O)c1` [CBK262188C], the viability at 28.5 h, 10 µM (bulk resorufin, single well) worked out at 93.5%. `CN(C)CCCNC(=O)COc1ccccc1` [CBK262189]: the viability at 28.5 h, 10 µM is 88%. `O=C(CCCN1C(=O)c2cccc3cccc(c23)C1=O)NCc1cccnc1` [CBK262190]: the viability at 28.5 h, 10 µM came to 73.9%. Consider `O=C(O)c1ccc(N2C(=O)CC(S/C(=N\c3ccccc3)Nc3ccccc3)C2=O)cc1` (stereo not drawn) [CBK262191], for which the viability at 28.5 h, 10 µM was 107%.

With `Cc1ccc(N(CC(=O)NN=C2CCCCCCCCCCC2)S(=O)(=O)c2ccccc2)cc1` [CBK262192], the viability at 28.5 h, 10 µM was determined as 105%. On the same count and under the same terms, as for `CC(=O)Nc1ccc(S(=O)(=O)N2CCN(CCO)CC2)cc1` [CBK262196], the figure is 95.1%; as for `COc1cccc(CNCc2ccccc2[N+](=O)[O-])c1OC` [CBK262198], 98%. As for `Cc1ccc(N(CC(=O)Nc2cccc3cccnc23)S(=O)(=O)c2ccc(C)cc2)cc1` [CBK262201], the viability at 28.5 h, 10 µM worked out at 104%. With `COc1cccc(/C=C2\SC(=S)N(CC(=O)NNC(=O)c3ccccc3O)C2=O)c1` [CBK262202], the viability at 28.5 h, 10 µM was 91.1%.

On to `O=C(NCc1ccccn1)C(=O)N/N=C/c1ccccc1[N+](=O)[O-]` [CBK262204], for which the viability at 28.5 h, 10 µM amounted to 96.4%.

As for `Cc1ccc(C)c(S(=O)(=O)NCCCn2ccnc2)c1` [CBK262205], the viability at 28.5 h, 10 µM was 109%. Same read-out and setting: the same measure for `Cc1cc(NCc2ccccc2)nc2ccccc12` [CBK262206]: 93.5%; for `COc1ccccc1N1CCN(CCc2nnc(S)n2-c2ccccc2)CC1` [CBK262212]: 102%.

For the compound `C[N+]1(c2ccccc2)CCC(N)=N1` (stereo not drawn) [CBK262213I], the viability at 28.5 h, 10 µM stood at 91.8%. Take `O=C(O)CSc1nccn1Cc1ccccc1` [CBK262215]: the viability at 28.5 h, 10 µM came out at 103%. On to `COc1ccc(CCNCc2ccc([N+](=O)[O-])cc2)cc1OC` [CBK262217], for which the viability at 28.5 h, 10 µM (bulk resorufin, single well) is 115%. Take `CC(Oc1cccc2ccccc12)C(=O)N/N=C/c1ccc(Cl)cc1Cl` (stereo not drawn) [CBK262218]: the viability at 28.5 h, 10 µM is 97%. On the same count and under the same terms, as for `CCN(CC)CCOc1c(C)cc(Cl)cc1C` [CBK262219], the figure is 97%; as for `COc1cc(/C=N/NC(=O)C(=O)Nc2ccc(C)c(C)c2)ccc1O` [CBK262225], 86%. On the same count and under the same terms, as for `CN1CCN(C(=O)c2ccc(Cl)c(S(=O)(=O)N3CCCCC3)c2)CC1` [CBK262228], the figure is 94.7%. In the case of `O=C1NC(=S)NC(=O)C1=NNc1ccccc1C(=O)O` [CBK262231], the viability at 28.5 h, 10 µM (bulk resorufin, single well) was 99.6%. Take `O=C(O)CSc1nc2ccc([N+](=O)[O-])cc2s1` [CBK262232]: the viability at 28.5 h, 10 µM came out at 88.4%. In the case of `COc1ccccc1/C=C1/S/C(=N/Cc2ccccc2)N(Cc2ccccc2)C1=O` [CBK262234], the viability at 28.5 h, 10 µM was determined as 99.3%.

Take `O=[N+]([O-])c1cc(C(F)(F)F)ccc1N(CCO)CCO` [CBK262238]: the viability at 28.5 h, 10 µM amounted to 94.9%.

Turning to `COc1ccc(NC(=O)c2cnccn2)c(OC)c1` [CBK262240], the viability at 28.5 h, 10 µM stood at 105%. Same read-out and setting: the same measure for `O=S(=O)(Cc1ccccc1)NCc1ccccn1` [CBK262241]: 96.2%; for `COc1ccc2oc(=O)c(C(=O)Nc3ccc(C(=O)O)cc3)cc2c1` [CBK262242]: 98.4%; for `O=[N+]([O-])c1ccc(OCCCNCCO)cc1` [CBK262244]: 92.3%. Same read-out and setting: the same measure for `CCOC(=O)c1c(/N=C/c2cc(I)cc(I)c2O)sc2c1CCN(Cc1ccccc1)C2` [CBK262246]: 106%. Still for that read-out and setting: as for `CC(C)(C)c1cc(/C=N/Nc2nc3ccccc3[nH]2)cc(C(C)(C)C)c1O` [CBK262247], the figure is 90.2%; as for `O=C(N/N=C/c1cccc(OC(=O)c2cccc(Br)c2)c1)c1ccncc1` [CBK262249], 112%. As for `O=C1c2cc(S(=O)(=O)NCc3ccco3)ccc2-c2ccc(S(=O)(=O)NCc3ccco3)cc21` [CBK262250], the viability at 28.5 h, 10 µM was 98.5%. Still for that read-out and setting: as for `CNc1nc2ccccc2n1CC(=O)c1ccccc1` [CBK262251B], the figure is 96%; as for `CO/N=C(\C(=O)O)c1cn2cccnc2n1` [CBK262252], 91.5%; as for `COc1ccc(NC(=O)C(=O)N/N=C/c2ccc(C(=O)O)cc2)cc1` [CBK262255], 95.5%. Still for that read-out and setting: the same measure for `O=C(O)CCn1ncc2ccccc21` [CBK262257]: 89.8%.

For `CC(C)(c1ccc(Oc2ccc3c(c2)C(=O)N(c2nccs2)C3=O)cc1)c1ccc(Oc2ccc3c(c2)C(=O)N(c2nccs2)C3=O)cc1` [CBK262258], the viability at 28.5 h, 10 µM turned out to be 103%.

Regarding `CN(C)c1ccc(/C=N/NC(=O)CSc2nnc(-c3ccccc3)n2-c2ccccc2)cc1` [CBK262263], the viability at 28.5 h, 10 µM is 90.2%.

Turning to `COc1ccc(-c2nnc(SCC(=O)NN)n2-c2ccccc2)cc1OC` [CBK262264], the viability at 28.5 h, 10 µM turned out to be 112%.

`COc1cc(/C=N/NC(N)=O)ccc1OC(=O)c1sc2ccccc2c1Cl` [CBK262265]: the viability at 28.5 h, 10 µM was determined as 85%.
